Laboratory results reported in a melting point compilation (Tetko et al.; mined from patent text by program, amines drawn as free bases though some values may be those of a salt).

melting point [°C]	Compound
165 to 166	CC(C)(C)OC(=O)Nc1cccc(OC2CCN(c3ccncc3)CC2)c1
247 to 248	Brc1ccc(-c2ccc(-c3ccc(Br)s3)c3nsnc23)s1
120 to 122	CCNC(=O)NCC(CO)c1cccc2ccc(OC)cc12 (stereo not drawn)
47 to 48	C=CCc1cc(-c2cc(CC)cc(CC=C)c2O)ccc1O
95 to 97	O=C(CN1CCOCC1)NC(c1ccccc1)C1(c2ccc(Cl)cc2)CCC1 (stereo not drawn)
61 to 63	OCc1ccnc(F)c1
104 to 106	CN(C)C(=O)COc1cccc(C=Cc2ccc3ccccc3n2)c1
46 to 48	CCOP(=O)(OCC)C(CCc1cc(C)nc2c(Br)c(-c3ccccc3)nn12)P(=O)(OCC)OCC
102 to 107	O=C1N=NC(=O)N1c1ccccc1
262 to 265	CCOC(=O)c1c(C2CCN(C)CC2)[nH]c(-c2ccc(F)c(F)c2)c1-c1ccncc1
196 to 198	Cc1cnc(CO)cc1C(c1cc(F)ccc1F)S(=O)(=O)c1ccc(Cl)cc1 (stereo not drawn)
69 to 70	COc1ccc(C(=O)CCCCCl)cc1S(=O)(=O)Cl
159 to 161	Cc1ccc([N+](=O)[O-])cc1S(=O)(=O)n1ccnc1C
146 to 147	COc1ccc2c(c1)c(Cc1cc(=O)n(C)[nH]1)c(C)n2C(=O)c1ccc(Cl)cc1
116 to 118	c1ccc(CN2CCN(c3cccc4cccnc34)CC2)cc1
207	CCOC(=O)/C=C/c1ccc(NC(=O)c2csc(NC(=O)NCc3ccccc3)n2)cc1
89	CCOC(=O)C(C)(C)S(=O)c1ccc2c(-c3ccc(Cl)cc3)noc2c1 (stereo not drawn)
216 to 218	CC(=O)OCCOc1ccc2oc3cc(-c4nnn[nH]4)ccc3c(=O)c2c1
35 to 37	CCCc1cc(CCCOc2c(C)cc(-c3nc(C)no3)cc2C)on1
39 to 40	Cc1cc(C)c2c(c1C)OC(C)(CBr)C2 (stereo not drawn)
200 to 201	O=c1ccn(-c2ccccc2N2CCOCC2)nc1-c1ccnn1-c1ccccc1
204 to 205	CSc1ccc(-n2c(-c3ccccc3)nc(SC)c(C#N)c2=O)cc1
103 to 104	Clc1ccc(Cl)n2nc(SCc3ccccc3)nc12

melting point [°C]	Compound
128 to 129	CCN1C(=O)CN(C(=O)C(F)(F)F)Cc2cc(OC)c([N+](=O)[O-])cc21
120 to 123	COc1ccc2nc(NC(=O)C(CC3CCCC3)c3ccc(S(=O)(=O)N4CCOCC4)cc3)sc2n1 (stereo not drawn)
149 to 151	CCCCn1c(CCOC)nc2c(N)nc3ccccc3c21
188 to 189	O=C(Cl)OCC1c2c(c3ccccc3c3ccccc23)-c2c1c1ccccc1c1ccccc21
110 to 112	CCCC[C@H](NC(=O)[C@H](CC(C)C)NC(=O)C1CCN(C(C)=O)CC1)C(=O)CSCc1ccco1
177 to 180	O=C1NCCCc2ccc([N+](=O)[O-])cc21
142 to 143	Nc1c(C(=O)c2cccc(Br)c2)[nH]c2cc(Cl)ccc12
91 to 94	COC(=O)CCCc1cc2nc(C)ccc2n1S(=O)(=O)c1ccccc1
188 to 190	CS(=O)(=O)Nc1cc(C(=O)O)c2c(c1)C(C(=O)O)CCN2 (stereo not drawn)
260 to 262	CN1N=C(Br)C2N=C(Cl)N=C(O)C21 (stereo not drawn)
144 to 150	CCCc1nc(-n2c(C)ccc2C)c(/C=C/C(=O)O)n1Cc1ccc(-c2ccccc2-c2nnn[nH]2)cc1
160 to 162	CC1(C)CCC(C)(C)c2cc(-c3cc(-c4ccc(C(=O)O)nc4)ccc3-c3ccccc3)ccc21
85	O=C(O)CCNc1cccc(CNC(=O)C2Cc3ccccc3N2S(=O)(=O)c2ccc(-c3cccc(C(F)(F)F)c3)cc2)c1 (stereo not drawn)
163 to 164	CC(Oc1ccc(C#N)cc1)c1ccnc2ncnn12 (stereo not drawn)
60 to 69	CC(C)C1(C)N=C(c2ncc(C3OCCCCO3)cc2C(=O)O)NC1=O (stereo not drawn)
73 to 74	CC(=O)NC(CCOC(C)=O)(CCOC(C)=O)CCc1ccccc1
182 to 186	O=C(c1ccc(-c2ccccc2)cc1)c1cccc(C(=O)c2ccc(-c3ccccc3)cc2)c1
153 to 157	COc1ccc(C(=O)Nc2ccc(C)c(Cl)c2)cc1N
130 to 132	CN1CCN(CCCCNc2ncc3cc(-c4c(Cl)cccc4Cl)c(=O)n(C)c3n2)CC1
203 to 205	Cc1nc2c(N)nc3cc(-c4ccccc4)ccc3c2n1CCCS(C)(=O)=O
124 to 125	O=C(CCCCCl)c1ccc2c(c1)Cc1cc(C(=O)CCCCCl)ccc1-2
108 to 109	COCCNC(=O)c1cc(F)cc(-c2cccc3cc(Cc4ccc(F)c(Cl)c4)sc23)c1
154 to 156	C[C@]12CCC(=O)N[C@@H]1CCc1cc(Sc3cccc(F)c3)ccc12

melting point [°C]	Compound
114 to 116	N#CC1Sc2ccccc2-c2ccccc21 (stereo not drawn)
188 to 199	OCc1ncc2n1CCCC2
127 to 130	NS(=O)(=O)c1ccc(-n2nc(C(F)(F)F)cc2-c2ccc(F)cc2)cc1F
226 to 228	CC12CCC(C1)C1(C)Oc3ccc(C(=O)/C=C/c4cc(C(=O)O)cs4)cc3C21C (stereo not drawn)
37 to 39	CCOC(=O)COc1cc(F)ccc1[N+](=O)[O-]
130 to 145	C=CCn1c(=O)[nH]c(=O)n(-c2cc(N3C(=O)C4=C(CCCC4)C3=O)c(F)cc2Cl)c1=O
246 to 248	NS(=O)(=O)c1ccc(NC(=O)Nc2cccc([N+](=O)[O-])c2)cc1
237 to 239	CCOC(=O)c1[nH]c2cc(C(F)(F)F)ccc2c1NCC(=O)c1ccccc1
126	CCOC(=O)C1=C(C)NC(N=CN(C)C)=C(C(=O)OCC)C1c1ccccc1[N+](=O)[O-] (stereo not drawn)
229	CN1C(=O)C(C2=COc3ccccc3O2)=C(c2c[nH]c3ccc(F)cc23)C1=O
70 to 71	COC(=O)c1ccc2cccc3c2c1-c1ccccc1-3
216 to 218	CCc1cc(=O)c2c([nH]1)COCC2
118 to 119	CC(=O)OC(CF)c1ccccc1S(=O)(=O)NC(C)(C)C (stereo not drawn)
227 to 228	CC(C)n1c(=O)c(=O)[nH]c2ccccc21
110 to 114	CCSc1nc(NC(C)=O)ccc1F
154 to 155	O=C(O)C12C3C4C5C3C1C5C42 (stereo not drawn)
192 to 194	CC(=O)Nc1c(C(=O)c2ccccc2)[nH]c2ccc(Br)cc12
246 to 248	c1ccc(-c2ccc(-c3csc(Nc4cc5ccccc5cn4)n3)s2)nc1
153 to 155	CON=CCCCn1c(C)nc2c(N)nc3ccccc3c21
82	On1c(-c2ccc(F)cc2)nc2ccc(Cn3ccnc3)cc21
62 to 63	COc1cc(CNC(=S)NC(COC(=O)C(C)(C)C)Cc2ccc(C)c(C)c2)ccc1OCCN (stereo not drawn)
312 to 314	CC(=O)c1nc(C)cn1-c1cc(C)c2[nH]c(=O)ccc2c1
76 to 80	Cn1ccnc1C1(CCCCc2ccc(N3C(=O)c4ccccc4C3=O)cc2)c2ccccc2-c2ccccc21

melting point [°C]	Compound
> 250	CCOC(=O)c1c[nH]c2c(=O)ccc(NC(=O)CC)cc2c1=O
204 to 206	CS(=O)(=O)c1ccc(-n2nc(C(F)F)cc2-c2nc3ccc(F)cc3s2)cc1
58 to 61	NNC(=O)OCCOc1ccc(C(=O)c2ccccc2)c(O)c1
41 to 42	Cc1cnc(-c2nn(C)c(OC(F)F)c2Cl)c(F)c1
105	Cc1cc(O)ccc1S(C)(=O)=O
253 to 254	O=c1c2c(Cc3cccc(OC(F)(F)F)c3)n[nH]c2c2cccnc2n1-c1ccccc1
135 to 136	CCCC(CCC)NC(=O)Nc1ccc(Cl)cc1
273 to 275	O=c1c2c(Cc3ccccc3Cl)n[nH]c2c2cccnc2n1-c1cccc(OC(F)(F)F)c1
191 to 193	COC(=O)c1ccc(Cn2c(=O)c(C)c3sc(C(=O)NCc4ccc(F)cc4)cn3c2=O)cc1OC
155 to 156	COc1ccc(S(=O)(=O)Nc2ccccc2NC(=S)c2ccc(F)cc2)cc1
> 350	O=[N+]([O-])c1cc(C=Cc2ccncc2)cc(O)c1O
239 to 243	O=C(N[C@@H](Cc1ccc(C(F)(F)F)cc1)[C@H](O)c1ccncc1)c1ccc(F)c2ccccc12
140	COc1ccccc1[C@H]1CC[C@@H](c2ccccc2)N1C(=O)CNC(=O)Nc1cccc(CC(=O)O)c1 (racemic)
93 to 96	Nc1nccnc1Cc1ccccc1
158 to 160	CC(=O)c1c(C)nc2c(OCc3c(Cl)ccc(S(=O)(=O)N4CCC[C@H]4C(=O)NCCCNC(=O)c4ccc(C=NN)cc4)c3Cl)cccn12
> 250	CCOC(=O)c1cn2c3c(c(Br)c(F)cc3c1=O)OCC2C (stereo not drawn)
93 to 95	CCCCCCc1c(C(C)C)nc(C(C)C)c(CO)c1-c1ccc(F)cc1
192 to 194	CCCCCCNC(=O)Nc1ccccc1C(=O)NC1CCN(C(c2ccccc2)c2ccccc2)CC1
94.5 to 95.5	CC(=O)c1ccc(-c2ccc(Br)cc2F)cc1
106 to 107	COc1ccnc(C(=O)NCCNC(=O)OC(C)(C)C)c1
127 to 129	O=C1C(=O)N(Cc2ccc(O)cc2)c2ccc(S(=O)(=O)N3CCCC3COc3cccnc3)cc21 (stereo not drawn)

Compound	melting point [°C]
Cc1n[nH]c2c(C(=O)NC(C)C)c(NC(=O)c3cc(C(F)(F)F)nn3-c3ncccc3Cl)c(Cl)cc12	235 to 236
O=C(NCc1ccccn1)c1ccc(C2=NOC(c3cc(Cl)cc(Cl)c3)(C(F)(F)F)C2)cc1C(F)(F)F (stereo not drawn)	69 to 70
CCN1CCC(c2ccccc2)=C(C(=O)NC)C1	103 to 105
Cc1cccc(NC(=O)NC2N=C(c3ccccc3F)c3cccc(C)c3N(CC(=O)c3ccccc3C)C2=O)c1 (stereo not drawn)	190 to 196
C=CCCN(CCC=C)Cc1noc(-c2ncn3c2[C@@H]2CCN2C(=O)c2ccccc2-3)n1	80 to 87
N=C(NCc1cccnc1)N[N+](=O)[O-]	185 to 190
COc1ccc(Nc2nc(NC3CCCCCC3)nc(N(C)C3CCN(C)CC3)n2)cc1Cl	173 to 176
O=C(C1CC1)N1CCC2(CC1)OCCO2	72 to 74
